Source: US12077503B2, “Substituted cyclic amides and their use as herbicides” (FMC CORPORATION, priority 2015, dated 2024)

Assays:
Type in all cases: in vivo
[1] = system: Galium (catchweed bedstraw, Galium aparine); test: Test C preemergence; details: for Plant response rating, Galium: scale 0 to 100, 0 no effect, 100 complete control
In short: (§1)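 Seeds in loam-sand soil treated preemergence, or plants in peat-based medium sprayed postemergence at 2–18 cm (1- to 4-leaf stage), with compound in a non-phytotoxic solvent mixture containing surfactant. Greenhouse-held 13–15 d, then visually rated against controls on a 0–100 scale (0 = no effect, 100 = complete control); dash = not tested.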

[2] = system: barnyardgrass (Echinochloa crus-galli); test: Test C preemergence; details: for Plant response rating, Barnyardgrass: scale 0 to 100, 0 no effect, 100 complete control
In short: as §1

[3] = system: blackgrass (Alopecurus myosuroides); test: Test C preemergence; details: for Plant response rating, Blackgrass: scale 0 to 100, 0 no effect, 100 complete control
In short: as §1

[4] = system: corn (Zea mays); test: Test C preemergence; details: for Plant response rating, Corn: scale 0 to 100, 0 no effect, 100 complete control
In short: as §1

[5] = system: crabgrass, large (large crabgrass, Digitaria sanguinalis); test: Test C preemergence; details: for Plant response rating, Crabgrass, Large: scale 0 to 100, 0 no effect, 100 complete control
In short: as §1

[6] = system: foxtail, giant (giant foxtail, Setaria faberii); test: Test C preemergence; details: for Plant response rating, Foxtail, Giant: scale 0 to 100, 0 no effect, 100 complete control
In short: as §1

[7] = system: johnsongrass (Sorghum halepense); test: Test C preemergence; details: for Plant response rating, Johnsongrass: scale 0 to 100, 0 no effect, 100 complete control
In short: as §1

[8] = system: lambsquarters (Chenopodium album); test: Test C preemergence; details: for Plant response rating, Lambsquarters: scale 0 to 100, 0 no effect, 100 complete control
In short: as §1

[9] = system: morningglory (Ipomoea coccinea); test: Test C preemergence; details: for Plant response rating, Morningglory: scale 0 to 100, 0 no effect, 100 complete control
In short: as §1

[10] = system: nutsedge, yellow (yellow nutsedge, Cyperus esculentus); test: Test C preemergence; details: for Plant response rating, Nutsedge, Yellow: scale 0 to 100, 0 no effect, 100 complete control
In short: as §1

[11] = system: oilseed rape (Brassica napus); test: Test C preemergence; details: for Plant response rating, Oilseed Rape: scale 0 to 100, 0 no effect, 100 complete control
In short: as §1

[12] = system: pigweed (Amaranthus retroflexus); test: Test C preemergence; details: for Plant response rating, Pigweed: scale 0 to 100, 0 no effect, 100 complete control
In short: as §1

[13] = system: ragweed (common ragweed, Ambrosia elatior); test: Test C preemergence; details: for Plant response rating, Ragweed: scale 0 to 100, 0 no effect, 100 complete control
In short: as §1

[14] = system: ryegrass, Italian (Italian ryegrass, Lolium multiflorum); test: Test C preemergence; details: for Plant response rating, Ryegrass, Italian: scale 0 to 100, 0 no effect, 100 complete control
In short: as §1

[15] = system: soybean (Glycine max); test: Test C preemergence; details: for Plant response rating, Soybean: scale 0 to 100, 0 no effect, 100 complete control
In short: as §1

[16] = system: velvetleaf (Abutilon theophrasti); test: Test C preemergence; details: for Plant response rating, Velvetleaf: scale 0 to 100, 0 no effect, 100 complete control
In short: as §1

[17] = system: waterhemp (common waterhemp, Amaranthus rudis); test: Test C preemergence; details: for Plant response rating, Waterhemp: scale 0 to 100, 0 no effect, 100 complete control
In short: as §1

[18] = system: wheat (winter wheat, Triticum aestivum); test: Test C preemergence; details: for Plant response rating, Wheat: scale 0 to 100, 0 no effect, 100 complete control
In short: as §1

[19] = system: sedge, umbrella (small-flower umbrella sedge, Cyperus difformis); test: Test C flooded paddy test; details: Flood, 0 is no effect, 100 is complete control
In short: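 Plants grown to the 2-leaf stage in pots flooded to 3 cm above soil; compounds applied directly into the paddy water, depth held throughout. After 13 to 15 d in greenhouse, injury visually rated against untreated controls on a 0–100 scale (0 no effect, 100 complete control).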

[20] = 31 g ai/ha, 0 is no effect, 100 is complete control

SMILES: CN1CC(c2ccc(F)c(C(F)(F)F)c2)C(C(=O)Nc2ccccc2S(C)(=O)=O)C1=O (stereo not shown) [Compound 612]
- Plant response rating (scale of 0 to 100), Galium [1, 20]: 80
- Plant response rating, Galium ([1]; 62 g ai/ha): 0
- Plant response rating, Galium ([1]; 125 g ai/ha): 90
- Plant response rating, Galium ([1]; 250 g ai/ha): 90
- Plant response rating (scale of 0 to 100), Barnyardgrass [2, 20]: 85
- Plant response rating, Barnyardgrass ([2]; 62 g ai/ha): 95
- Plant response rating, Barnyardgrass ([2]; 125 g ai/ha): 95
- Plant response rating, Barnyardgrass ([2]; 250 g ai/ha): 98
- Plant response rating (scale of 0 to 100), Blackgrass [3, 20]: 70
- Plant response rating, Blackgrass ([3]; 62 g ai/ha): 90
- Plant response rating, Blackgrass ([3]; 125 g ai/ha): 90
- Plant response rating, Blackgrass ([3]; 250 g ai/ha): 95
- Plant response rating (scale of 0 to 100), Corn [4, 20]: 40
- Plant response rating, Corn ([4]; 62 g ai/ha): 30
- Plant response rating, Corn ([4]; 125 g ai/ha): 65
- Plant response rating, Corn ([4]; 250 g ai/ha): 70
- Plant response rating (scale of 0 to 100), Crabgrass, Large [5, 20]: 98
- Plant response rating, Crabgrass, Large ([5]; 62 g ai/ha): 95
- Plant response rating, Crabgrass, Large ([5]; 125 g ai/ha): 98
- Plant response rating, Crabgrass, Large ([5]; 250 g ai/ha): 100
- Plant response rating (scale of 0 to 100), Foxtail, Giant [6, 20]: 90
- Plant response rating, Foxtail, Giant ([6]; 62 g ai/ha): 90
- Plant response rating, Foxtail, Giant ([6]; 125 g ai/ha): 95
- Plant response rating, Foxtail, Giant ([6]; 250 g ai/ha): 95
- Plant response rating (scale of 0 to 100), Johnsongrass [7, 20]: 40
- Plant response rating, Johnsongrass ([7]; 62 g ai/ha): 60
- Plant response rating, Johnsongrass ([7]; 125 g ai/ha): 85
- Plant response rating, Johnsongrass ([7]; 250 g ai/ha): 90
- Plant response rating (scale of 0 to 100), Lambsquarters [8, 20]: 45
- Plant response rating, Lambsquarters ([8]; 62 g ai/ha): 45
- Plant response rating, Lambsquarters ([8]; 125 g ai/ha): 40
- Plant response rating, Lambsquarters ([8]; 250 g ai/ha): 70
- Plant response rating (scale of 0 to 100), Morningglory [9, 20]: 0
- Plant response rating, Morningglory ([9]; 62 g ai/ha): 0
- Plant response rating, Morningglory ([9]; 125 g ai/ha): 25
- Plant response rating, Morningglory ([9]; 250 g ai/ha): 55
- Plant response rating (scale of 0 to 100), Nutsedge, Yellow [10, 20]: 0
- Plant response rating, Nutsedge, Yellow ([10]; 62 g ai/ha): 0
- Plant response rating, Nutsedge, Yellow ([10]; 125 g ai/ha): 25
- Plant response rating, Nutsedge, Yellow ([10]; 250 g ai/ha): 35
- Plant response rating (scale of 0 to 100), Oilseed Rape [11, 20]: 30
- Plant response rating, Oilseed Rape ([11]; 62 g ai/ha): 50
- Plant response rating, Oilseed Rape ([11]; 125 g ai/ha): 70
- Plant response rating, Oilseed Rape ([11]; 250 g ai/ha): 90
- Plant response rating (scale of 0 to 100), Pigweed [12, 20]: 60
- Plant response rating, Pigweed ([12]; 62 g ai/ha): 80
- Plant response rating, Pigweed ([12]; 125 g ai/ha): 90
- Plant response rating, Pigweed ([12]; 250 g ai/ha): 90
- Plant response rating (scale of 0 to 100), Ragweed [13, 20]: 10
- Plant response rating, Ragweed ([13]; 62 g ai/ha): 10
- Plant response rating, Ragweed ([13]; 125 g ai/ha): 55
- Plant response rating, Ragweed ([13]; 250 g ai/ha): 65
- Plant response rating (scale of 0 to 100), Ryegrass, Italian [14, 20]: 20
- Plant response rating, Ryegrass, Italian ([14]; 62 g ai/ha): 40
- Plant response rating, Ryegrass, Italian ([14]; 125 g ai/ha): 50
- Plant response rating, Ryegrass, Italian ([14]; 250 g ai/ha): 80
- Plant response rating (scale of 0 to 100), Soybean [15, 20]: 0
- Plant response rating, Soybean ([15]; 62 g ai/ha): 0
- Plant response rating, Soybean ([15]; 125 g ai/ha): 10
- Plant response rating, Soybean ([15]; 250 g ai/ha): 0
- Plant response rating (scale of 0 to 100), Velvetleaf [16, 20]: 0
- Plant response rating, Velvetleaf ([16]; 62 g ai/ha): 10
- Plant response rating, Velvetleaf ([16]; 125 g ai/ha): 30
- Plant response rating, Velvetleaf ([16]; 250 g ai/ha): 60
- Plant response rating (scale of 0 to 100), Waterhemp [17, 20]: 75
- Plant response rating, Waterhemp ([17]; 62 g ai/ha): 85
- Plant response rating, Waterhemp ([17]; 125 g ai/ha): 90
- Plant response rating, Waterhemp ([17]; 250 g ai/ha): 95
- Plant response rating (scale of 0 to 100), Wheat [18, 20]: 20
- Plant response rating, Wheat ([18]; 62 g ai/ha): 55
- Plant response rating, Wheat ([18]; 125 g ai/ha): 25
- Plant response rating, Wheat ([18]; 250 g ai/ha): 90
- Plant response rating (scale of 0 to 100), Sedge, Umbrella ([19]; 31 g ai/ha): 0
- Plant response rating (scale of 0 to 100), Sedge, Umbrella ([19]; 62 g ai/ha): 0
- Plant response rating (scale of 0 to 100), Sedge, Umbrella ([19]; 125 g ai/ha): 0
- Plant response rating (scale of 0 to 100), Sedge, Umbrella ([19]; 250 g ai/ha): 0
